In patent US20040175691A1, “Use of the KCNQ2 and KCNQ3 genes for the discovery of agents useful in the treatment of neurological disorders” (priority 1998, published 2004) one finds IC50 data, which are given here for two molecules.

Common to all, as to format: cell-based
One test addresses T1, eag1 (Rattus norvegicus, UniProt Q63472).
T1 construct: expressed in transfected cells; host or cells: oocytes (Xenopus)
T1 sequence (Q63472 1-962): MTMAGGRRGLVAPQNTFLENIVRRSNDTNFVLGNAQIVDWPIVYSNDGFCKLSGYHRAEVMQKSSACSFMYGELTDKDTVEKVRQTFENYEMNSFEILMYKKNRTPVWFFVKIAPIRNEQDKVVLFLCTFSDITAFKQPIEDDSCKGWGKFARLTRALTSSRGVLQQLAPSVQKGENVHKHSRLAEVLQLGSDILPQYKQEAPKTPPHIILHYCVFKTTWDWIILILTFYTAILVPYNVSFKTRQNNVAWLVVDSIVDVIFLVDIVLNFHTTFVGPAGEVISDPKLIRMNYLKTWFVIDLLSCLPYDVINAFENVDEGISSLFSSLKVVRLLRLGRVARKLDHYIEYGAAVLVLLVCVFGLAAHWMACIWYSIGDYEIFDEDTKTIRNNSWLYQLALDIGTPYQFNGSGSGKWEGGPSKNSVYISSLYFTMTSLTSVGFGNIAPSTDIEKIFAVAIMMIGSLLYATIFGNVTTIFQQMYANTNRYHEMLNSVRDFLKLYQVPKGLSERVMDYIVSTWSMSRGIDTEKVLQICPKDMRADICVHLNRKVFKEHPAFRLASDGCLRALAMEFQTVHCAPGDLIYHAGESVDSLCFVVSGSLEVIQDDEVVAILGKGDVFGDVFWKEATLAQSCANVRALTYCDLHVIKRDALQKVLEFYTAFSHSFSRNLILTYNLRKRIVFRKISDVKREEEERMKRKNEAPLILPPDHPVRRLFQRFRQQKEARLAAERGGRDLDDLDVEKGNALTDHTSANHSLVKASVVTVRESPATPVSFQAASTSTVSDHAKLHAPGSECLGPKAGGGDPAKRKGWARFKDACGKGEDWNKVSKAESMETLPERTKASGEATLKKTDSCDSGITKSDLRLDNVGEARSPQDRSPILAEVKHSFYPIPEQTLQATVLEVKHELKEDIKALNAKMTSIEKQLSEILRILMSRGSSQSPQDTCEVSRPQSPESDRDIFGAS
The test is described as follows: Blockade of cloned eag1 channel in oocytes. As to conditions: mean±s.e.m., blockade incomplete.

Another test deals with T2, elk1 (Rattus norvegicus, UniProt Q9QWS8).
T2 construct: expressed in transfected cells; host or cells: oocytes (Xenopus)
T2 sequence (Q9QWS8 1-1102): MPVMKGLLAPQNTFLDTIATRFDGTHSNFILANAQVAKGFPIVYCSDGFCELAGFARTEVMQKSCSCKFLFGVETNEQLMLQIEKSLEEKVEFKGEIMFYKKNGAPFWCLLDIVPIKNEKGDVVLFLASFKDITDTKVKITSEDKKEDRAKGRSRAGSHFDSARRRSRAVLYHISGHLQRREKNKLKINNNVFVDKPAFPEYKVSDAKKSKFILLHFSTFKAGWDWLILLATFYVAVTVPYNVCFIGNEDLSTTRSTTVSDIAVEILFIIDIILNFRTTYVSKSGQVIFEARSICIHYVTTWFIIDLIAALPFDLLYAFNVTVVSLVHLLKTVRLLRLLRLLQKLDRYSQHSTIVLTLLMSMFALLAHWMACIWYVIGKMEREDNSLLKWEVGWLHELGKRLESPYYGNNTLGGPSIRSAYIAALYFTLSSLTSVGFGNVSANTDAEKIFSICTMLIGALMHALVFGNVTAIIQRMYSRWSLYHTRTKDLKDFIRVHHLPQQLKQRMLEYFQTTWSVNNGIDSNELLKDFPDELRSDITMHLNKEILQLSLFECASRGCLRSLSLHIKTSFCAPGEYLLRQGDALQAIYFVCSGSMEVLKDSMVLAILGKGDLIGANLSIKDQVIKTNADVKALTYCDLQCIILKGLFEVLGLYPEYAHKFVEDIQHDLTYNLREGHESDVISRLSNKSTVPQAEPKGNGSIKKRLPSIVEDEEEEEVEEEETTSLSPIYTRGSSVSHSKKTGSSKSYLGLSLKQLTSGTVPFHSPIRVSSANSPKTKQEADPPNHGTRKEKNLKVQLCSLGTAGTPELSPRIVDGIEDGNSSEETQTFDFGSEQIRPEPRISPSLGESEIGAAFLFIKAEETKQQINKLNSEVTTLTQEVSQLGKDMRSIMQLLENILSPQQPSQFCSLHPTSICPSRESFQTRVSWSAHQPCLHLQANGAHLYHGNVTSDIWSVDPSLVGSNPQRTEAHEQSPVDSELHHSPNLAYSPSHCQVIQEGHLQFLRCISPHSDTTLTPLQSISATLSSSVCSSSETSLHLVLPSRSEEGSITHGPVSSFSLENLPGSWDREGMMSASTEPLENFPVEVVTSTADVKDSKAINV
The test is described as follows: Blockade of cloned elk1 channel in oocytes.

The target in a further test is KCNQ2 (Homo sapiens, UniProt O43526, DEL417-446). Kind of test: Blockade of KCNQ2 channels expressed in Xenopus oocytes. As to conditions: oocytes; mean±s.e.m. Set-up: Full-length KCNQ2 cDNAs were amplified from adult human brain cDNA; expressed in transfected cells; host or cells: Xenopus oocytes injected with cRNA. On the procedure: Method: Full-length KCNQ2 cDNAs were amplified from adult human brain cDNA using the following primers ([…], […]) with the Expand Fidelity enzyme mixture (Boehringer Mannheim, Indianapolis). […] This region is also alternatively spliced in the KCNQ2 cDNA clone described by Biervert et al. (1998). Preparation, injection of cRNA and recording from oocytes was performed at room temperature as described previously (Dixon et al. 1996). The standard extracellular recording solution contained: 82 mM NaCl, 2 mM KCl, 1.8 mM CaCl2, 1 mM MgCl2, and 5 mM Na-HEPES (pH 7.6). Data collection and analysis were performed using pClamp software (Axon Instruments, Foster City, Calif.).
IC50 values are all expressed in μM, mean±s.e.m.

The IC50 is the midpoint of a concentration-inhibition curve. The low end stands for higher potency, the high end for lower potency. For the molecule `O=C1N(c2ccccc2)c2ccccc2C1(Cc1ccncc1)Cc1ccncc1` [Linopirdine, 3,3-bis(4-pyridinylmethyl)-1-phenylindolin-2-one], the IC50 on eag1 was 31 ± 3 µM; on elk1 (at +30 mV) it was 144 µM; against elk1 (at −20 mV) it was 26 µM; on elk1 (step to −10 mV, voltage dependent) it was 37 ± 4 µM; at KCNQ2, 4.8 ± 0.6 µM.
For the molecule `O=C1c2ccccc2C(Cc2ccncc2)(Cc2ccncc2)c2ccccc21` [XE991, 10,10-bis(4-pyridinylmethyl)-9(10H)-anthracenone], the IC50 at eag1 was 49 ± 6 µM; on elk1 (oocytes), more than 100 µM; on KCNQ2, 0.71 ± 0.07 µM.
